The text below walks through data of patent US9790216B2, “3-substituted cyclopentylamine derivatives” (Merck Patent GmbH, priority 2013, dated 2017).

Each structure is given as a SMILES string. pIC50: −log10 of the molar value.

The target of the assay is T1, human fatty acid synthase FASN (Homo sapiens, UniProt P49327).
T1 construct: human recombinant full-length fatty acid synthase; made in house; host or cells: SF9 cells
Nature of the assay: Biochemical activity testing of human fatty acid synthase FASN (NADPH fluorescence intensity enzyme assay). As to conditions: human recombinant full-length FASN, inhibition. An excerpt:
• GST=Glutathione-S-transferase • FRET=Fluorescence resonance energy transfer • HTRF®=(homogenous time resolved fluorescence) • HEPES=4-(2-hydroxyethyl)-1-piperazine ethanesulfonic acid buffer • DTT=Dithiothreitol • BSA=bovine serum albumin • CHAPS=detergent; • CHAPS=3-[(3-cholamidopropyl)dimethylammonio]-1-propanesulfonate Biochemical Activity Testing of Human Fatty Acid Synthase FASN
Fatty acid synthase FASN is a multifunctional enzyme with seven catalytic activities thereby synthesising long chain fatty acids especially palmitoyl-CoA in the presence of co-factor NADPH starting from the substrates acetyl-CoA and malonyl-CoA. The reductive synthesis is realized by the oxidation of NADPH to NADP. Since NADPH has a high fluorescence intensity quantum yield compared to NADP with excitation at 340 nm and emission at 460 nm, the reaction can be monitored via the decrease in fluorescence intensity. The biochemical FASN activity testing was performed as 384 well two-time-point kinetic fluorescence intensity assay format in Greiner low volume medium binding 384-well black microtiter plates in a total assay volume of 8 μl and was used for high throughput screen. In each well 3 μl 40 nM human recombinant full-length fatty acid synthase (produced in-house in SF9 cells) were dispensed in the following assay buffer: 50 mM potassium phosphate buffer pH 7.0, 0.005% (w/v) BSA, 2 mM Glutathione, 0.02% Tween-20. Then 2 μl of 200 μM NADPH in assay buffer were added, followed by the addition of the test compounds in 10 dilution concentrations starting with 30 μM (final concentration) to get a final DMSO content of 1% (v/v). The mixture was incubated for at least 15 min at room temperature. After the pre-incubation the enzymatic reaction was started by the addition of 2 μl substrate solution (80 μM acetyl-CoA, 240 μM malonyl-CoA). A first fluorescence intensity measurement (time point one) was performed with an Envision multimode reader (Perkin Elmer LAS Germany GmbH) at excitation wavelength 340 nm (lamp mode) and emission wavelength 460 nm. The reaction was incubated for 30 minutes at room temperature. After this the fluorescence intensity was measured again in the Envision using the same parameters as described above (second time point measurement). The data were analysed by subtracting the first time point measurement value from the second time point measurement value (after the enzymatic reaction). The differences of the emission signals were determined. These reflect directly the conversion rate of NADPH. The full value used was the inhibitor-free reaction. A pharmacological zero value was used like GSK837149A (Sigma-Aldrich) in a final concentration of 5-10 μM. The inhibitory values (IC50) were determined using either the program Symyx Assay Explorer® or Condosseo® from GeneData.

T1 sequence (P49327 whole entry): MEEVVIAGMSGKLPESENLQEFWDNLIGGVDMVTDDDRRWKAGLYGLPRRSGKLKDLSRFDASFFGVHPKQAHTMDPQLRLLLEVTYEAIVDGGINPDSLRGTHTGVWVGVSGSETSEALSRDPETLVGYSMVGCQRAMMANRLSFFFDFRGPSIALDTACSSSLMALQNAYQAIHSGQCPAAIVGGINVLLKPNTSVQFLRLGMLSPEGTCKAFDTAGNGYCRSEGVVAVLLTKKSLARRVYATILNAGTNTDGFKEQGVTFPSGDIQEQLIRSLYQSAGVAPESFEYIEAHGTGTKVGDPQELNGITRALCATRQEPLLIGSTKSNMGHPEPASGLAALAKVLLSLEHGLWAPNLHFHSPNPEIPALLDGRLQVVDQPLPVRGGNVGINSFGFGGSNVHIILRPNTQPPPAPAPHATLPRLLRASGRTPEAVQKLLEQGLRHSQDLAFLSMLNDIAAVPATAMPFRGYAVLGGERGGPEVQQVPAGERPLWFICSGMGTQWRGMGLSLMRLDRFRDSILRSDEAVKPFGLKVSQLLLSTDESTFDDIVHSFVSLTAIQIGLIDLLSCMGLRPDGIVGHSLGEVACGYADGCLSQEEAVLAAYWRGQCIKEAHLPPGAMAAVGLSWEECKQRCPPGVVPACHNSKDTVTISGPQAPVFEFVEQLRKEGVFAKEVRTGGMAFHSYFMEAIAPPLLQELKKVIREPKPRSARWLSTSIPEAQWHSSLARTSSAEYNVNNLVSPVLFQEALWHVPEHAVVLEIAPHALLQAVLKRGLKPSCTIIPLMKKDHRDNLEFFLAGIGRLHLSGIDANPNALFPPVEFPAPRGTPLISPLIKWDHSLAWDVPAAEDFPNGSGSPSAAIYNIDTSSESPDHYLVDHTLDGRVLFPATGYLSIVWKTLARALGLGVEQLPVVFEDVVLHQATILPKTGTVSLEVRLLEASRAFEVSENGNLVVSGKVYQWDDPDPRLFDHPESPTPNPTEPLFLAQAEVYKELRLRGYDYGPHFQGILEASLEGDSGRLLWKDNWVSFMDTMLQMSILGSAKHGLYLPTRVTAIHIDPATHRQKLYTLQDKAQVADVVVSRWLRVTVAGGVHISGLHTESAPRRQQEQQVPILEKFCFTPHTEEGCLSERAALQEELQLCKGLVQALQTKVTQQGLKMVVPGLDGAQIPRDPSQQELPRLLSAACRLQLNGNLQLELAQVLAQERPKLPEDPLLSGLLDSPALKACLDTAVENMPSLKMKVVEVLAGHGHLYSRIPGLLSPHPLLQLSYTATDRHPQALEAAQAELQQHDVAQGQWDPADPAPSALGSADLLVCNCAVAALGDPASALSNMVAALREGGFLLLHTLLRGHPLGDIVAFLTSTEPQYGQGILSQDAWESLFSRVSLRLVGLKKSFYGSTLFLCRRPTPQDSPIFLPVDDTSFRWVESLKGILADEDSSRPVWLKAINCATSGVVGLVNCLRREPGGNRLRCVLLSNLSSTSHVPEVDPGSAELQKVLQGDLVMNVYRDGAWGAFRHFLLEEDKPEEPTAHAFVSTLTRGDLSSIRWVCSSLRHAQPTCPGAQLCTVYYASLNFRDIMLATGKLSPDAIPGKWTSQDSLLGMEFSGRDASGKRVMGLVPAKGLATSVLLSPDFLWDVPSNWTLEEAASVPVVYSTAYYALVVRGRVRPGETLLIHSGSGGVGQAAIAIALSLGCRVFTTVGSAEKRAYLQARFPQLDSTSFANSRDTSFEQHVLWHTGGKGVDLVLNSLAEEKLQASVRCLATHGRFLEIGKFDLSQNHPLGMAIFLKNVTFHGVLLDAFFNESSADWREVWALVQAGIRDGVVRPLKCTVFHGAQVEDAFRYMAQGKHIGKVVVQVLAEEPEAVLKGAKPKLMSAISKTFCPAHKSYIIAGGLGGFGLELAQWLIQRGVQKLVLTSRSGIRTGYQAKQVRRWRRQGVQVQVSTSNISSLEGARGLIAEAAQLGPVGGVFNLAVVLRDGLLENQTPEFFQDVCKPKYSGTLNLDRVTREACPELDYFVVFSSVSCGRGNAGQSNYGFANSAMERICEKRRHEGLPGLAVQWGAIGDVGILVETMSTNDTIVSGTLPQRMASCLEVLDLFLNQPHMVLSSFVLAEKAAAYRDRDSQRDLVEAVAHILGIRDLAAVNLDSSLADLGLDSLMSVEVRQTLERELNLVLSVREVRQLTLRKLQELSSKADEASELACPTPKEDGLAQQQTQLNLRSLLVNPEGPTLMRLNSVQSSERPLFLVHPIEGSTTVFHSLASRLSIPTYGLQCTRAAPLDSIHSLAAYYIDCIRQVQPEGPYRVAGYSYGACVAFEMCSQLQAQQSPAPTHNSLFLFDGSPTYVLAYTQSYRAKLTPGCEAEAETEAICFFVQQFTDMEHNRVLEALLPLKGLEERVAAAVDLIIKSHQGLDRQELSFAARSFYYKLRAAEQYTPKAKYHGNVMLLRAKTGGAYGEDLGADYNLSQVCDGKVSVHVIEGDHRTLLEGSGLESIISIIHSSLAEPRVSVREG

As a reminder, the pIC50 is the negative decadic logarithm of the IC50, by convention in mol/L. With `CN(C(=O)c1ccc(-c2ccccc2)cc1)[C@@H]1CC[C@H](n2cc(C3CC3)nn2)C1` (racemic) [Compound A29, (rac)-cis-biphenyl-4-carboxylic acid [-3-(4-cyclopropyl-[1,2,3]triazol-1-yl)-cyclopentyl]-methyl-amide], the pIC50 is 4.30 to 5.52.
Consider `CCCc1cn([C@H]2CC[C@@H](N(C)C(=O)c3ccc(-c4ccccc4)cc3)C2)nn1` (racemic) [Compound A30, (rac)-cis-biphenyl-4-carboxylic acid methyl-[3-(4-propyl-[1,2,3]triazol-1-yl)-cyclopentyl]-amide], for which the pIC50 is 4.30 to 5.52.
Then `CCCc1nnc([C@H]2CC[C@@H](N(C)C(=O)c3ccc(-c4nc5ccccc5o4)cc3)C2)o1` [Compound A1, 4-benzoxazol-2-yl-N-methyl-N-[(1 R,3S)-3-(5-propyl-[1,3,4]oxadiazol-2-yl)-cyclopentyl]-benzamide], with above 6.52; and `CCCc1nnc([C@H]2CC[C@@H](N(C)C(=O)c3ccc(-c4ccccc4)cc3)C2)o1` [Compound A2, biphenyl-4-carboxylic acid methyl-[(1R,3S)-3-(5-propyl-[1,3,4]oxadiazol-2-yl)-cyclopentyl]-amide], with above 6.52.
Then `CCCc1nnc([C@H]2CC[C@@H](N(C)C(=O)c3ccc(C#Cc4ccc(F)cc4)cc3)C2)o1` [Compound A3, 4-(4-fluoro-phenylethynyl)-N-methyl-N-[(1 R,3S)-3-(5-propyl-[1,3,4]oxadiazol-2-yl)-cyclopentyl]-benzamide], with above 6.52; and `CCCc1nnc([C@H]2CC[C@@H](N(C)C(=O)c3ccc(-c4ccc(C#N)cc4)cc3)C2)o1` [Compound A4, 4′-cyano-biphenyl-4-carboxylic acid methyl-[(1 R,3S)-3-(5-propyl-[1,3,4]oxadiazol-2-yl)-cyclopentyl]-amide], with above 6.52.
Then `CCc1nnc([C@H]2CC[C@@H](N(C)C(=O)c3ccc(-c4nc5ccccc5o4)cc3)C2)o1` [Compound A5, 4-benzoxazol-2-yl-N-[(1 R,3S)-3-(5-ethyl-[1,3,4]oxadiazol-2-yl)-cyclopentyl]-N-methyl-benzamide], with above 6.52.
Consider `CCc1nnc([C@H]2CC[C@@H](N(C)C(=O)c3ccc(-c4ccc(C#N)cc4)cc3)C2)o1` [Compound A6, 4′-cyano-biphenyl-4-carboxylic acid [(1R,3S)-3-(5-ethyl-[1,3,4]oxadiazol-2-yl)-cyclopentyl]-methyl-amide], for which the pIC50 is above 6.52.
As for `CCc1nnc([C@H]2CC[C@@H](N(C)C(=O)c3ccc(-c4nc5ccccc5[nH]4)cc3)C2)o1` [Compound A7, 4-(1H-benzimidazol-2-yl)-N-[(1 R,3S)-3-(5-ethyl-[1,3,4]oxadiazol-2-yl)-cyclopentyl]-N-methyl-benzamide], the negative logarithm of the IC50 (pIC50) was above 6.52.
Then `CCc1nnc([C@H]2CC[C@@H](N(C)C(=O)c3ccc(-c4ccncc4)cc3)C2)o1` [Compound A8, N-[(1R,3S)-3-(5-ethyl-[1,3,4]oxadiazol-2-yl)-cyclopentyl]-N-methyl-4-pyridin-4-yl-benzamide], with 5.52 to 6.52.
Then `CC(C)c1nnc([C@H]2CC[C@@H](N(C)C(=O)c3ccc(-c4nc5ccccc5o4)cc3)C2)o1` [Compound A9, 4-benzoxazol-2-yl-N-[(1 R,3S)-3-(5-isopropyl-[1,3,4]oxadiazol-2-yl)-cyclopentyl]-N-methyl-benzamide], with above 6.52; and `CC(C)c1nnc([C@H]2CC[C@@H](N(C)C(=O)c3ccc(-c4ccc(C#N)cc4)cc3)C2)o1` [Compound A10, 4′-cyano-biphenyl-4-carboxylic acid [(1R,3S)-3-(5-isopropyl-[1,3,4]oxadiazol-2-yl)-cyclopentyl]-methyl-amide], with above 6.52; and `CC(C)c1nnc([C@H]2CC[C@@H](N(C)C(=O)c3ccc(-c4nc5ccccc5[nH]4)cc3)C2)o1` [Compound A11, 4-(1H-benzimidazol-2-yl)-N-[(1 R,3S)-3-(5-isopropyl-[1,3,4]oxadiazol-2-yl)-cyclopentyl]-N-methyl-benzamide], with above 6.52.
Then `CC(C)c1nnc([C@H]2CC[C@@H](N(C)C(=O)c3ccc(-c4ccncc4)cc3)C2)o1` [Compound A12, N-[(1R,3S)-3-(5-isopropyl-[1,3,4]oxadiazol-2-yl)-cyclopentyl]-N-methyl-4-pyridin-4-yl-benzamide], with 5.52 to 6.52; and `Cc1nnc([C@H]2CC[C@@H](N(C)C(=O)c3ccc(-c4nc5ccccc5o4)cc3)C2)o1` [Compound A13, 4-benzoxazol-2-yl-N-methyl-N-[(1 R,3S)-3-(5-methyl-[1,3,4]oxadiazol-2-yl)-cyclopentyl]-benzamide], with above 6.52; and `Cc1nnc([C@H]2CC[C@@H](N(C)C(=O)c3ccc(-c4nc5ccccc5s4)cc3)C2)o1` [Compound A14, 4-benzothiazol-2-yl-N-methyl-N-[(1 R,3S)-3-(5-methyl-[1,3,4]oxadiazol-2-yl)-cyclopentyl]-benzamide], with above 6.52.
For the compound `Cc1nnc([C@H]2CC[C@@H](N(C)C(=O)c3ccc(-c4ccncc4)cc3)C2)o1` [Compound A15, N-methyl-N-[(1R,3S)-3-(5-methyl-[1,3,4]oxadiazol-2-yl)-cyclopentyl]-4-pyridin-4-yl-benzamide], the pIC50 is 5.52 to 6.52.
As for `Cc1nnc([C@H]2CC[C@@H](N(C)C(=O)c3ccc(-c4ccc(Cl)cc4)cc3)C2)o1` [Compound A16, 4′-chloro-biphenyl-4-carboxylic acid methyl-[(1R,3S)-3-(5-methyl-[1,3,4]oxadiazol-2-yl)-cyclopentyl]-amide], the negative logarithm of the IC50 (pIC50) is above 6.52.
Then `Cc1nnc([C@H]2CC[C@@H](N(C)C(=O)c3ccc(-c4nc5ccccc5[nH]4)cc3)C2)o1` [Compound A17, 4-(1H-benzimidazol-2-yl)-N-methyl-N-[(1 R,3S)-3-(5-methyl-[1,3,4]oxadiazol-2-yl)-cyclopentyl]-benzamide], with above 6.52; and `COc1cc(C(=O)N(C)[C@@H]2CC[C@H](c3nnc(C)o3)C2)ccc1-c1nc2ccccc2o1` [Compound A18, 4-benzoxazol-2-yl-3-methoxy-N-methyl-N-[(1 R,3S)-3-(5-methyl-[1,3,4]oxadiazol-2-yl)-cyclopentyl]-benzamide], with above 6.52.
Take `Cc1nnc([C@H]2CC[C@@H](N(C)C(=O)c3ccc(-c4nc5cc(Cl)ccc5o4)cc3)C2)o1` [Compound A19, 4-(5-chloro-benzoxazol-2-yl)-N-methyl-N-[(1 R,3S)-3-(5-methyl-[1,3,4]oxadiazol-2-yl)-cyclopentyl]-benzamide]: the negative logarithm of the IC50 (pIC50) was above 6.52.
For `Cc1nnc([C@H]2CC[C@@H](N(C)C(=O)c3ccc(C#Cc4ccc(Cl)cc4)cc3)C2)o1` [Compound A21, 4-(4-chloro-phenylethynyl)-N-methyl-N-[(1 R,3S)-3-(5-methyl-[1,3,4]oxadiazol-2-yl)-cyclopentyl]-benzamide], the pIC50 was above 6.52.
Then `Cc1nnc([C@H]2CC[C@@H](N(C)C(=O)c3ccc(C#Cc4ccncc4)cc3)C2)o1` [Compound A22, N-methyl-N-[(1R,3S)-3-(5-methyl-[1,3,4]oxadiazol-2-yl)-cyclopentyl]-4-pyridin-4-ylethynyl-benzamide], with 5.52 to 6.52; and `Cc1nnc([C@H]2CC[C@@H](N(C)C(=O)c3ccc(-c4nc5ccccc5o4)cn3)C2)o1` [Compound A23, 5-benzoxazol-2-yl-pyridine-2-carboxylic acid methyl-[(1R,3S)-3-(5-methyl-[1,3,4]oxadiazol-2-yl)-cyclopentyl]-amide], with 5.52 to 6.52.
Then `Cc1nnc([C@H]2CC[C@@H](N(C)C(=O)c3ccc(-c4ccccc4)cc3)C2)o1` [Compound A24, biphenyl-4-carboxylic acid methyl-[(1R,3S)-3-(5-methyl-[1,3,4]oxadiazol-2-yl)-cyclopentyl]-amide], with above 6.52; and `Cc1nnc([C@H]2CC[C@@H](N(C)C(=O)c3ccc(-c4ccc(C#N)cc4)cc3)C2)o1` [Compound A25, 4′-cyano-biphenyl-4-carboxylic acid methyl-[(1R,3S)-3-(5-methyl-[1,3,4]oxadiazol-2-yl)-cyclopentyl]-amide], with above 6.52; and `Cc1cnc([C@H]2CC[C@@H](N(C)C(=O)c3ccc(-c4nc5ccccc5o4)cc3)C2)o1` [Compound A26, 4-benzoxazol-2-yl-N-methyl-N-[(1 R,3S)-3-(5-methyl-oxazol-2-yl)-cyclopentyl]-benzamide], with above 6.52.
